Experimental data taken from patent US4759929A, “Novel treatment” (Cabinet Harle & Phelip, priority 1987, dated 1988).

Experiments:
[1] = test system: natural killer (NK) and killer cells (ADCC) function; conditions: cited from earlier work
[2] = test system: mammalian cellular DNA polymerases; conditions: known; cited from earlier work
[3] = target: T1, LAV purified reverse transcriptase (Human immunodeficiency virus type 1 group M subtype B, UniProt P03367); test: Lineweaver-Burk kinetics, varying poly A oligo dT12-18 template primer concentration; type: biochemical, Lymphadenopathy associated virus (LAV); conditions: for HPA23 inhibition: LAV purified RT, FIG. 1 legend
T1 construct: made in house
Protocol: The results of the Lineweaver-Burk plots of the effects of varying concentration of poly An oligo dT12-18 at two different HPA23 concentrations are summarized in FIG. 1. In the experimental conditions, kinetic enzymatic parameters are: KM=2.18 nM of polyA oligo dT, Vmax=0.02 pM of 3 HTMP incorporated sec^-1. […] The interaction of HPA23 with the template primer-enzyme complex should take place at the binding site of the template primer.
Lineweaver-Burk representation of the influence of poly A oligo T12-18 template concentration on the inhibition by HPA23 of LAV purified reverse transcriptase
A: picomoles of ^3 H TMP incorporated in five minutes at 37° C.
B: template primer concentration (OD ml^-1)
: control (no inhibition)
: inhibition dose corresponds to 65 percent HPA23 inhibition (19 μg/ml)
inhibition dose corresponds to 80 percent HPA23 inhibition (40 μg/ml)
Each plot-point is the mean of three experiments.

[4] = test system: lymphatic choriomeningitis virus; conditions: adult mice acutely infected; cited from earlier work
[5] = target: E. Coli RNase H (Escherichia coli, UniProt P0A7Y4); test: Inhibition of E. Coli RNase H (unpublished results); type: biochemical
Chain of E. Coli RNase H (P0A7Y4 whole entry): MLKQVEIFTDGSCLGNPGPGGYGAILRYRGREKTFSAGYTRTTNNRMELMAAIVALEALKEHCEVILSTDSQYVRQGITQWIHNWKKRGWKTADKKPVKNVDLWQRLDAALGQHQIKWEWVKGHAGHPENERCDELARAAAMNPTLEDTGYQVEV

[6] = target: pancreatic RNase (Bos taurus, UniProt P61823); test: Inhibition of pancreatic RNase (unpublished results); type: biochemical
Chain of pancreatic RNase (P61823 27-150): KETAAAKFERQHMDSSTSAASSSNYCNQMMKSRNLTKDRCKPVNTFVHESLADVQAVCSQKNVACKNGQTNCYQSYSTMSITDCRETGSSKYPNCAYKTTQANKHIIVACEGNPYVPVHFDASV

[7] = test system: E. Coli DNA polymerases; conditions: known; cited from earlier work
[8] = test system: cell growth; test: Inhibition of cell growth; type: cell-based
[9] = target: E. Coli RNA polymerases (Escherichia coli, UniProt P0A8T7+P0A8V2); conditions: known; cited from earlier work
Chain of E. Coli RNA polymerases (P0A8V2 whole entry): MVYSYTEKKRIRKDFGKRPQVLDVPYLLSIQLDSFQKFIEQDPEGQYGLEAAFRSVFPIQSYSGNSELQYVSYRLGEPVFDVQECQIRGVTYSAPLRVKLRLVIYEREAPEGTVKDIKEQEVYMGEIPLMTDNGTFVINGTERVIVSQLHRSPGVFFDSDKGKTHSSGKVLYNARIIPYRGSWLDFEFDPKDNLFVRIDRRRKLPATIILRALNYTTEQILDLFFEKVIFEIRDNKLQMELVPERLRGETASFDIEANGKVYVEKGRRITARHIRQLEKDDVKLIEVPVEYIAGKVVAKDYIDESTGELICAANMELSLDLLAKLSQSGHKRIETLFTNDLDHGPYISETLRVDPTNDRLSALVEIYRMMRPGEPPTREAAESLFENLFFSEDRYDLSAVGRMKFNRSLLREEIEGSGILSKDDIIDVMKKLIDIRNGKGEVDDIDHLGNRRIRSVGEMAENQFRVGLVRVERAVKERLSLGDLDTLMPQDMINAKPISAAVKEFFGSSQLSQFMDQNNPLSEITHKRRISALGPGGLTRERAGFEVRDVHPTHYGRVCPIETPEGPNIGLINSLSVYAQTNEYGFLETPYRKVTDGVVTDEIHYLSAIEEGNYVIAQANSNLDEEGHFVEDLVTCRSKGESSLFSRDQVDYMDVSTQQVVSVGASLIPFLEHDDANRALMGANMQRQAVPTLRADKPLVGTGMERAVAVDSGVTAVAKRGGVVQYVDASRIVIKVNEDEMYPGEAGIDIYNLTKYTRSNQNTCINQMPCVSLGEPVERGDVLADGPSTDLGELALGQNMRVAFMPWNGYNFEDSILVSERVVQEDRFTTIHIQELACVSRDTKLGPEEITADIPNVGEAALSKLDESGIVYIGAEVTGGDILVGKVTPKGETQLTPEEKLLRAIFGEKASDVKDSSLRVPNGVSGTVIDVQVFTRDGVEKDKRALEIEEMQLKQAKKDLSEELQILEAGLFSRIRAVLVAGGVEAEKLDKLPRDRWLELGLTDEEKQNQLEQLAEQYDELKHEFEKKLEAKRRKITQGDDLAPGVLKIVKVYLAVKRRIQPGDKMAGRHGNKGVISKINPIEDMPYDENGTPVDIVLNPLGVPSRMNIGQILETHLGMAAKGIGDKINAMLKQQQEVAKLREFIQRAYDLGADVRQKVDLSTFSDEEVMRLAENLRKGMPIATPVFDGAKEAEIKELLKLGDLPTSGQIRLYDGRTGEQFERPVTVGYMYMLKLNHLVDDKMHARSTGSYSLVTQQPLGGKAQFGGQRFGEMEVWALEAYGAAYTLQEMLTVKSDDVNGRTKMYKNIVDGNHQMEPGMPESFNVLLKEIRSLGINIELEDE
Chain of E. Coli RNA polymerases (P0A8T7 whole entry): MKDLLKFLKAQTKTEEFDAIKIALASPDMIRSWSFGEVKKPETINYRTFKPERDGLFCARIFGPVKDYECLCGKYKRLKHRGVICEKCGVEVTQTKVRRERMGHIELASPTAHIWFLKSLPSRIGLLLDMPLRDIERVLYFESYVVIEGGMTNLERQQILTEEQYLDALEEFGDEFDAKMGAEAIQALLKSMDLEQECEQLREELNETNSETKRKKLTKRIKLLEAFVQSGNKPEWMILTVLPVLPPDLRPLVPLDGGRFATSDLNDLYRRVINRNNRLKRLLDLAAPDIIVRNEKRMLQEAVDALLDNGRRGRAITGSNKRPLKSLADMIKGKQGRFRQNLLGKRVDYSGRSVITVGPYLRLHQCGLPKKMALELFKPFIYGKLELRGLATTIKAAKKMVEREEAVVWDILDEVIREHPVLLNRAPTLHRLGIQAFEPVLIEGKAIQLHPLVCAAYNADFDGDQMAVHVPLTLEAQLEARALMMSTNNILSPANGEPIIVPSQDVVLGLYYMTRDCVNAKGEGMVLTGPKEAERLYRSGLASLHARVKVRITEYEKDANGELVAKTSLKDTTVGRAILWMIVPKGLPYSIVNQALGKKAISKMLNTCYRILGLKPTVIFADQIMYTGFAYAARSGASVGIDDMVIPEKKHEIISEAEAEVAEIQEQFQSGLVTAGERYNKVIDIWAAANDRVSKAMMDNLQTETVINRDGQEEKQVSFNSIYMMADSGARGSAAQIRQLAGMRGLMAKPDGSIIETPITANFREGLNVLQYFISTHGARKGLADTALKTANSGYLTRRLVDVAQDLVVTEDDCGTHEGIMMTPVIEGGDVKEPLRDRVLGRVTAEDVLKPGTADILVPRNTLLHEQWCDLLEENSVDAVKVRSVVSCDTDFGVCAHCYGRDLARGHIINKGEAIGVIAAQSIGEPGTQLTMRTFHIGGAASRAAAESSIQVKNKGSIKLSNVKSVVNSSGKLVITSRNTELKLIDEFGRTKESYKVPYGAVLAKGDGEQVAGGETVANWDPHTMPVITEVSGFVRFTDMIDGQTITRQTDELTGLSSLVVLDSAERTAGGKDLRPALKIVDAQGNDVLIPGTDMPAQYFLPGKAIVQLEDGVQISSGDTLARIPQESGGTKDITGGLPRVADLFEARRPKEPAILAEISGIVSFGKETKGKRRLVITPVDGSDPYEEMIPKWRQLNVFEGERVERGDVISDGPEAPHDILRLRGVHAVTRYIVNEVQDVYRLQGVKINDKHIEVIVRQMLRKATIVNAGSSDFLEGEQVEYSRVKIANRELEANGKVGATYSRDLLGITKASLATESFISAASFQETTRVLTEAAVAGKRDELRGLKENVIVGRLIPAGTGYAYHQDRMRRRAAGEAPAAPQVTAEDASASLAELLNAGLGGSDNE
Chain of E. Coli RNA polymerases (P0A7Z4 whole entry partner): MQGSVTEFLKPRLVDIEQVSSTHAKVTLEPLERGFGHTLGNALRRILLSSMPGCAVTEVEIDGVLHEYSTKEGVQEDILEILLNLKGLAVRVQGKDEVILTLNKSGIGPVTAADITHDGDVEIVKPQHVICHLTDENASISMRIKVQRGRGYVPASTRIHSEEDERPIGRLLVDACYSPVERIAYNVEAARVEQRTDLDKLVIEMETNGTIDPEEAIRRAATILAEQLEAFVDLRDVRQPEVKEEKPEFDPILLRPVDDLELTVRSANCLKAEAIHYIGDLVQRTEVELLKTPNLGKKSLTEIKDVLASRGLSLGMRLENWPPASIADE
Chain of E. Coli RNA polymerases (P0A800 whole entry partner): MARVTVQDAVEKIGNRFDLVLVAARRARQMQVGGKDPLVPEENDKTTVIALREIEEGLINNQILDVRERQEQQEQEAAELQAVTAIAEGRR

[10] = target: mouse α DNA polymerase (Mus musculus, UniProt P33609); conditions: required doses much higher than those inhibiting reverse transcriptase; cited from earlier work
[11] = target: T1, LAV purified reverse transcriptase; test: Reverse transcriptase assay, LAV purified RT; type: biochemical, Lymphadenopathy associated virus (LAV); conditions: for p. mole incorporated: control 0.11
Protocol: LAV RT was purified. Briefly, 10^9 LAV infected cells were washed two times in PBS, resuspended in Tris 50 mM (pH 7.5) KCl 500 mM, ethylene diamine tetracetic acid (EDTA) 0.1 mM, dithiothreitol 1 mM and glycerol 10 percent, and frozen in liquid nitrogen. After incubation with Triton X100 0.01 percent at 37° C. (15 Min), cell homogenates were centrifuged at 100,000 g for one hour and the supernatant dialyzed six hours (KCl 100 mM). The dialyzate was chromatographed on a phosphocellulse column. RT and DNA polymerases were eluted from the column with a 0.1M to 1M KCl gradient.
(§1) Assay mixtures are indicated in the legend of Table I. The reaction was stopped by treating the mixtures with sodium pyrophosphate and trichloracetic acid. The results are given as picomoles of tritiated deoxyribonucleotides monophosphate incorporated into DNA after 1 hour at 37° C.
(§2) HPA 23 inhibition of reverse transcriptase of SAIDS virus and LAV.
(§3) Reaction mixture (50 μl) contains: Tris 50 mM pH 7.9, 5 mM MgCl2,
(§4) OD/ml Oligo dT 12-18, and 200 pM ^3 HTTP (25 Ci/mM).

[12] = test system: Friend viruses and the plasma variant of Chirigos virus; conditions: in vivo; cited from earlier work
[13] = Pharmacokinetic studies in patient, I.V bolus infusion; type: in vivo, human; conditions: patient 1; I.V bolus infusion (about two minutes)
[14] = test system: encephalomyocarditis; conditions: mice; cited from earlier work
[15] = test system: T4 + Lymphocytes; test: T4+ lymphocytes number in treated patients; type: in vivo, human; conditions: four patients; after therapy
[16] = test system: AIDS or related syndrome; test: Clinical features after HPA23 treatment; type: in vivo, human
[17] = target: pancreatic DNase (Bos taurus, UniProt P00639); test: Inhibition of pancreatic DNase (unpublished results); type: biochemical
Chain of pancreatic DNase (P00639 23-282): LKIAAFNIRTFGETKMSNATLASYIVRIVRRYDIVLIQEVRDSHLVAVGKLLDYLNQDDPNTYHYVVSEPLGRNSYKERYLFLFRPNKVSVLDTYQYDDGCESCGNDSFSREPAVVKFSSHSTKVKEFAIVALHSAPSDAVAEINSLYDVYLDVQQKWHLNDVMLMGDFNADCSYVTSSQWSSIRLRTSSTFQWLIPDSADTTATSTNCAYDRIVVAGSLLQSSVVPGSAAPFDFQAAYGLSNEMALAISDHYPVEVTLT

[18] = test system: LAV; test: Isolation of LAV from peripheral blood T cell cultures and cocultures of treated patients (RT activity in supernatant)
[19] = test system: scrapie; conditions: mice infected with scrapie; cited from earlier work
[20] = target: β DNA polymerase (Mus musculus, UniProt Q8K409); conditions: cited from earlier work
[21] = test system: spontaneous mammary tumors; conditions: C3 HBi mice; cited from earlier work
[22] = test system: MLV reverse transcriptase; conditions: previously described; cited from earlier work
[23] = target: SAIDS virus reverse transcriptase (Simian retrovirus SRV-1, UniProt P04025); test: Reverse transcriptase assay, SAIDS virus; type: biochemical, Simian AIDS (SAIDS) virus; conditions: for Percent inhibition / p. mole incorporated: SAIDS virus; for p. mole incorporated: control 0.43
Chain of SAIDS virus reverse transcriptase (P04025 913-1497): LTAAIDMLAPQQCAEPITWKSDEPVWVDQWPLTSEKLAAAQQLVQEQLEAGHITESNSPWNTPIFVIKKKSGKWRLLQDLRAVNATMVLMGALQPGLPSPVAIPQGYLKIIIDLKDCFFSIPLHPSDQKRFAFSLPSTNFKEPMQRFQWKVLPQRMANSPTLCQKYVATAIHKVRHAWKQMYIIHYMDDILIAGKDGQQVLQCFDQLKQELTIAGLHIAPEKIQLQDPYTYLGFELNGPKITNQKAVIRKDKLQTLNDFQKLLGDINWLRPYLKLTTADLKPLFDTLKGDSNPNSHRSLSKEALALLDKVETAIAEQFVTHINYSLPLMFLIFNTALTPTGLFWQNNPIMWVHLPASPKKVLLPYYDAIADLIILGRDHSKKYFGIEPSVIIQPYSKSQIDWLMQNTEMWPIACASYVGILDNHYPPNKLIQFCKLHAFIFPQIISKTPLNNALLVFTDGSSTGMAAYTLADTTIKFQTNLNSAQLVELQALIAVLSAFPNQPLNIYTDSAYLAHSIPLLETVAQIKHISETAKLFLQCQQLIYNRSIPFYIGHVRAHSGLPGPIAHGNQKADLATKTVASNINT
Protocol: Simian AIDS (SAIDS) virus producing cells were provided by Murray Gardner, M.D. and supernatants of cell cultures were concentrated using polyethylene glycol (PEG) 10 percent precipitation. The precipitate was purified on a 20 to 60 percent sucrose gradient (50,000 g, 2.5 hours). Reverse transcriptase assays (see legend Table I) were performed on each fraction from the collected gradient. Maximum RT activity was found at a density of 1.18.
as §1, §2, §3, §4

[24] = target: T2, LAV reverse transcriptase (Human immunodeficiency virus type 1 group M subtype B, UniProt P03367); test: Reverse transcriptase assay, LAV virus (non purified RT); type: biochemical, Lymphadenopathy associated virus (LAV); conditions: for ID50: LAV virus (non purified RT), 1 hour at 37° C.; for Percent inhibition / p. mole incorporated: LAV virus; for p. mole incorporated: control 0.13
T2 construct: made in house; host or cells: LAV virions, PEG concentrated and sucrose gradient purified
Protocol: Lymphadenopathy associated virus (LAV) was purified. Briefly, after clarification, the virus was concentrated by PEG (10 percent), and then centrifuged for 1.5 hours at 55,000 g (IEC type SB 498 rotor) on a 10 to 60 percent sucrose gradient. Reverse transcriptase assays were performed on each fraction and the maximum RT activity was found at a density of 1.16 and corresponded to the purified virus fraction.
as §1, §2, §3, §4

## Ammonium-9-antimonio-III-21-tungsto-VII-sodate [HPA 23]
[1]
  effect on NK and ADCC function: stimulating agent
[2]
  inhibition of mammalian cellular DNA polymerases: strong inhibitor
[3]; LAV RT, versus template primer poly A oligo dT12-18
  inhibition mechanism: competitive inhibition
[3]; 19 μg/ml
  HPA23 inhibition: 65%
[3]; 40 μg/ml
  HPA23 inhibition: 80%
[4]
  mortality: reduces the mortality
[5]
  inhibition of E. Coli RNase H: does not inhibit
[6]
  inhibition of pancreatic RNase: does not inhibit
[7]
  inhibition of E. Coli DNA polymerases: strong inhibitor
[8]
  dose required to inhibit the cell growth relative to the one blocking RT activity: twenty times higher
[9]
  inhibition of E. Coli RNA polymerases: strong inhibitor
[10]
  inhibition of mouse α DNA polymerase: inhibitor
[11]; 1 hour at 37° C.
  ID50: 11 µg/mL
[11]; inhibitor 0.5 μg/ml
  Percent inhibition: 4.5%
  p. mole incorporated: 0.105 p. mole
[11]; inhibitor 1 μg/ml
  Percent inhibition: 8.2%
  p. mole incorporated: 0.101 p. mole
[11]; inhibitor 5 μg/ml
  Percent inhibition: 33.6%
  p. mole incorporated: 0.073 p. mole
[11]; inhibitor 10 μg/ml
  Percent inhibition: 43.6%
  p. mole incorporated: 0.062 p. mole
[11]; inhibitor 20 μg/ml
  Percent inhibition: 61.8%
  p. mole incorporated: 0.042 p. mole
[11]; inhibitor 30 μg/ml
  Percent inhibition: 70.2%
  p. mole incorporated: 0.032 p. mole
[11]; inhibitor 60 μg/ml
  Percent inhibition: 94%
  p. mole incorporated: 0.007 p. mole
[11]; inhibitor 100 μg/ml
  Percent inhibition: 100%
  p. mole incorporated: 0 p. mole
[12]
  protection against leukemia: protects
[13]
  half life: < 20 min
[14]
  activity against lethal encephalomyocarditis infections: some activity
[15]
  absolute numbers of T4 + cells and T4 /T8 ratio: did not change significantly
[16]; patient 3, 4 months outcome
  Kaposi's sarcoma evolution: stabilized their mucosal evolutive K.S., without regression
[16]; patient one, one year after the end of HPA23 therapy
  opportunistic infections: did not present anymore other opportunistic infections
[17]
  inhibition of pancreatic DNase: does not inhibit
[18]; patient 1, during each period of treatment, I.V bolus, 1 mg/kg to 3.3 mg/kg
  LAV detection in T cell cultures: LAV could no longer be detected
[18]; patients 1 and 2, one month after the end of the treatment
  LAV isolation, even after cocultivation: LAV was not isolated
[18]; patients 2, 3 and 4, 30 days after the end of the treatment
  LAV detection in T cell cocultures: LAV was again detected in the T cell cocultures in two of the three patients (3 and 4) at a very low level
[18]; patients 2, 3 and 4, following two weeks treatment, 200 mg IV infusion per day during 15 days
  LAV isolation from primary cultures and cocultures of patient T cells: no virus (LAV) was isolated
[19]
  disease / incubation period: can prevent disease or prolong the incubation period
[20]
  effect on β DNA polymerase: without any effect
[21]
  occurrence of spontaneous mammary tumors: reduces the occurance of spontaneous mammary tumors
[22]
  inhibition of MLV reverse transcriptase: competitive inhibitor
[23]; SAIDS (monkey) virus enzyme, kinetic studies
  inhibition mechanism: competitive inhibition
[23]; SAIDS virus RT, 1 hour at 37° C.
  ID50: 1.1 µg/mL
[23]; inhibitor 0.5 μg/ml
  Percent inhibition: 21%
  p. mole incorporated: 0.34 p. mole
[23]; inhibitor 1 μg/ml
  Percent inhibition: 35%
  p. mole incorporated: 0.28 p. mole
[23]; inhibitor 2.5 μg/ml
  Percent inhibition: 80%
  p. mole incorporated: 0.09 p. mole
[23]; inhibitor 5 μg/ml
  Percent inhibition: 94.5%
  p. mole incorporated: 0.024 p. mole
[23]; inhibitor 10 μg/ml
  Percent inhibition: 99.5%
  p. mole incorporated: 0.0025 p. mole
[23]; inhibitor 25 μg/ml
  Percent inhibition: 100%
  p. mole incorporated: 0 p. mole
[24]; 60 min
  ID50: 30.5 µg/mL
[24]; listed as HPA23, 60 min
  ID50: 30 µg/mL
[24]; inhibitor 10 μg/ml
  Percent inhibition: 2.4%
  p. mole incorporated: 0.127 p. mole
[24]; inhibitor 25 μg/ml
  Percent inhibition: 18.6%
  p. mole incorporated: 0.013 p. mole
[24]; inhibitor 50 μg/ml
  Percent inhibition: 84.4%
  p. mole incorporated: 0.098 p. mole
[24]; inhibitor 60 μg/ml
  Percent inhibition: 100%
  p. mole incorporated: 0 p. mole
Each adult patient
  recovery of the platelet count to the pretreatment value: between 21st day and the 45th day after
Four patients
  platelet toxicity: some platelet toxicity in three out of four cases
  renal toxicity: No new renal toxicity was observed
Patients 2, 3 and 4
  recovery of hepatic transaminases to the pretreatment range: ≤ 21 days
Patients 2, 3 and 4 during treatment
  elevations of the hepatic transaminases: 2 ×normal value
